Assays:
Settings in all cases: 48 h
SEM cells [1] = test: cell viability relative to DMSO control; higher = less cytotoxic
In short: (§1)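 Viability values are per-plate percentages of DMSO wells, with background from cell-free wells. Library compounds in DMSO were pin-dosed, in an 11-point threefold series from 47 μM to 0.79 nM, onto NOMO1 or SEM (500 cells/well) or P12-Ichikawa (1000 cells/well) leukemia cells in 1536-well plates (5 μl). Those cells had been adapted for at least four passages in each medium, and CellTiter-Glo One luminescence was read after 48 h at 37°C.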

P12-Ichikawa [2] = test: as above
In short: as §1

NOMO1 [3] = test: as above
In short: as §1

SEM cells [4] = test: AUC of viability dose-response curve (% viability x log10 dose units); higher = less sensitive
In short: (§2)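 Leukemia cells adapted to each medium (500 or 1000 cells/well, 1536-well plates) were exposed to library compounds in DMSO for 48 h at 37°C at 11 threefold doses, 47 μM to 0.79 nM. Luminescence by CellTiter-Glo One was normalised per plate to DMSO and cell-free wells, then fitted with a four-parameter log-logistic curve on log10 dose. Curves above full viability were scaled and quality-control failures removed before area under the curve was integrated by trapezoidal rule.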

P12-Ichikawa [5] = test: as above
In short: as §2

NOMO1 [6] = test: as above
In short: as §2

O=c1[nH]c(=O)n(C2CCCO2)cc1F (stereo unspecified)
cell viability [%]
Settings	NOMO1 [3]	P12-Ichikawa [2]	SEM cells [1]
HPLM + 10% dialyzed FBS, 0.000781 µM	–	122	92.4
HPLM + 10% dialyzed FBS, 0.00234 µM	–	124	124
HPLM + 10% dialyzed FBS, 0.00702 µM	–	126	105
HPLM + 10% dialyzed FBS, 0.0211 µM	–	125	119
HPLM + 10% dialyzed FBS, 0.0632 µM	–	125	122
HPLM + 10% dialyzed FBS, 0.19 µM	–	124	127
HPLM + 10% dialyzed FBS, 0.569 µM	–	123	92.5
HPLM + 10% dialyzed FBS, 1.71 µM	–	123	111
HPLM + 10% dialyzed FBS, 5.12 µM	–	112	90.2
HPLM + 10% dialyzed FBS, 15.4 µM	–	110	104
HPLM + 10% dialyzed FBS, 46.1 µM	–	116	99.1
RPMI 5 mM glucose + 10% FBS, 0.000781 µM	10.4	–	123
RPMI 5 mM glucose + 10% FBS, 0.00234 µM	124	–	120
RPMI 5 mM glucose + 10% FBS, 0.00702 µM	108	–	109
RPMI 5 mM glucose + 10% FBS, 0.0211 µM	116	–	126
RPMI 5 mM glucose + 10% FBS, 0.0632 µM	105	–	115
RPMI 5 mM glucose + 10% FBS, 0.19 µM	131	–	110
RPMI 5 mM glucose + 10% FBS, 0.569 µM	106	–	127
RPMI 5 mM glucose + 10% FBS, 1.71 µM	110	–	114
RPMI 5 mM glucose + 10% FBS, 5.12 µM	116	–	123
RPMI 5 mM glucose + 10% FBS, 15.4 µM	111	–	122
RPMI 5 mM glucose + 10% FBS, 46.1 µM	109	–	104
RPMI 5 mM glucose + 10% dialyzed FBS, 0.000781 µM	–	88.6	70.2
RPMI 5 mM glucose + 10% dialyzed FBS, 0.00234 µM	–	126	110
RPMI 5 mM glucose + 10% dialyzed FBS, 0.00702 µM	–	120	109
RPMI 5 mM glucose + 10% dialyzed FBS, 0.0211 µM	–	128	117
RPMI 5 mM glucose + 10% dialyzed FBS, 0.0632 µM	–	130	99.7
RPMI 5 mM glucose + 10% dialyzed FBS, 0.19 µM	–	120	115
RPMI 5 mM glucose + 10% dialyzed FBS, 0.569 µM	–	122	108
RPMI 5 mM glucose + 10% dialyzed FBS, 1.71 µM	–	121	109
RPMI 5 mM glucose + 10% dialyzed FBS, 5.12 µM	–	119	102
RPMI 5 mM glucose + 10% dialyzed FBS, 15.4 µM	–	108	104
RPMI 5 mM glucose + 10% dialyzed FBS, 46.1 µM	–	115	97.8

AUC of viability dose-response curve
Settings	NOMO1 [6]	P12-Ichikawa [5]	SEM cells [4]
HPLM + 10% dialyzed FBS	468	466	448
RPMI 5 mM glucose + 10% FBS	455	467	467
RPMI 5 mM glucose + 10% dialyzed FBS	447	470	469

OC[C@H]1O[C@@H]2[C@@H](OC\3=N\C(=N)\C=C/[N@@]23)[C@@H]1O
cell viability [%]
Settings	NOMO1 [3]	P12-Ichikawa [2]	SEM cells [1]
HPLM + 10% dialyzed FBS, 0.000781 µM	103	113	94
HPLM + 10% dialyzed FBS, 0.00234 µM	129	119	107
HPLM + 10% dialyzed FBS, 0.00702 µM	125	107	93.1
HPLM + 10% dialyzed FBS, 0.0211 µM	114	105	97.8
HPLM + 10% dialyzed FBS, 0.0632 µM	130	95.6	84.4
HPLM + 10% dialyzed FBS, 0.19 µM	129	44.3	47.9
HPLM + 10% dialyzed FBS, 0.569 µM	109	24.7	34.6
HPLM + 10% dialyzed FBS, 1.71 µM	62.6	13.5	28.1
HPLM + 10% dialyzed FBS, 5.12 µM	30.4	10.7	21.9
HPLM + 10% dialyzed FBS, 15.4 µM	19.8	7.98	16.1
HPLM + 10% dialyzed FBS, 46.1 µM	6.81	8.28	14.5
RPMI 5 mM glucose + 10% FBS, 0.000781 µM	119	116	105
RPMI 5 mM glucose + 10% FBS, 0.00234 µM	122	118	116
RPMI 5 mM glucose + 10% FBS, 0.00702 µM	112	118	102
RPMI 5 mM glucose + 10% FBS, 0.0211 µM	111	105	117
RPMI 5 mM glucose + 10% FBS, 0.0632 µM	119	93.2	87
RPMI 5 mM glucose + 10% FBS, 0.19 µM	125	47.3	46.9
RPMI 5 mM glucose + 10% FBS, 0.569 µM	130	22.5	41.9
RPMI 5 mM glucose + 10% FBS, 1.71 µM	103	12.1	23.3
RPMI 5 mM glucose + 10% FBS, 5.12 µM	33.7	8.81	16
RPMI 5 mM glucose + 10% FBS, 15.4 µM	22	7.28	13.8
RPMI 5 mM glucose + 10% FBS, 46.1 µM	8.44	6.52	13.5
RPMI 5 mM glucose + 10% dialyzed FBS, 0.000781 µM	116	109	85.3
RPMI 5 mM glucose + 10% dialyzed FBS, 0.00234 µM	122	122	86.2
RPMI 5 mM glucose + 10% dialyzed FBS, 0.00702 µM	120	114	99.8
RPMI 5 mM glucose + 10% dialyzed FBS, 0.0211 µM	106	117	81.1
RPMI 5 mM glucose + 10% dialyzed FBS, 0.0632 µM	118	92.4	59.8
RPMI 5 mM glucose + 10% dialyzed FBS, 0.19 µM	125	53.2	37.8
RPMI 5 mM glucose + 10% dialyzed FBS, 0.569 µM	90.5	28.6	22.4
RPMI 5 mM glucose + 10% dialyzed FBS, 1.71 µM	67.1	17	14.8
RPMI 5 mM glucose + 10% dialyzed FBS, 5.12 µM	23.3	11.6	13
RPMI 5 mM glucose + 10% dialyzed FBS, 15.4 µM	16.8	9.01	10.7
RPMI 5 mM glucose + 10% dialyzed FBS, 46.1 µM	9.9	7.41	8.17

AUC of viability dose-response curve
Settings	NOMO1 [6]	P12-Ichikawa [5]	SEM cells [4]
HPLM + 10% dialyzed FBS	348	248	277
RPMI 5 mM glucose + 10% FBS	374	241	264
RPMI 5 mM glucose + 10% dialyzed FBS	344	251	223

N#C[C@H](O[C@@H]1O[C@H](CO[C@@H]2O[C@H](CO)[C@@H](O)[C@H](O)[C@H]2O)[C@@H](O)[C@H](O)[C@H]1O)c1ccccc1
cell viability [%]
Settings	NOMO1 [3]	P12-Ichikawa [2]	SEM cells [1]
HPLM + 10% dialyzed FBS, 0.000781 µM	108	110	114
HPLM + 10% dialyzed FBS, 0.00234 µM	96.9	106	103
HPLM + 10% dialyzed FBS, 0.00702 µM	120	108	113
HPLM + 10% dialyzed FBS, 0.0211 µM	115	102	127
HPLM + 10% dialyzed FBS, 0.0632 µM	99.1	103	115
HPLM + 10% dialyzed FBS, 0.19 µM	102	96.6	118
HPLM + 10% dialyzed FBS, 0.569 µM	100	99.5	108
HPLM + 10% dialyzed FBS, 1.71 µM	96.6	97.7	102
HPLM + 10% dialyzed FBS, 5.12 µM	103	90.8	110
HPLM + 10% dialyzed FBS, 15.4 µM	95.9	91.7	114
HPLM + 10% dialyzed FBS, 46.1 µM	19.5	55.4	41.8
RPMI 5 mM glucose + 10% FBS, 0.000781 µM	90.5	99.5	106
RPMI 5 mM glucose + 10% FBS, 0.00234 µM	117	98.5	98.3
RPMI 5 mM glucose + 10% FBS, 0.00702 µM	104	92.5	120
RPMI 5 mM glucose + 10% FBS, 0.0211 µM	89.4	97.5	112
RPMI 5 mM glucose + 10% FBS, 0.0632 µM	97.3	104	99.8
RPMI 5 mM glucose + 10% FBS, 0.19 µM	93.5	99.5	102
RPMI 5 mM glucose + 10% FBS, 0.569 µM	96.3	94.2	112
RPMI 5 mM glucose + 10% FBS, 1.71 µM	84.5	88.4	94.8
RPMI 5 mM glucose + 10% FBS, 5.12 µM	93.4	89.9	94.5
RPMI 5 mM glucose + 10% FBS, 15.4 µM	85.1	94.5	95.7
RPMI 5 mM glucose + 10% FBS, 46.1 µM	16	48.5	20.6
RPMI 5 mM glucose + 10% dialyzed FBS, 0.000781 µM	106	98.6	97.4
RPMI 5 mM glucose + 10% dialyzed FBS, 0.00234 µM	110	96.2	104
RPMI 5 mM glucose + 10% dialyzed FBS, 0.00702 µM	103	95.6	97.4
RPMI 5 mM glucose + 10% dialyzed FBS, 0.0211 µM	115	101	122
RPMI 5 mM glucose + 10% dialyzed FBS, 0.0632 µM	109	97.6	99
RPMI 5 mM glucose + 10% dialyzed FBS, 0.19 µM	96.2	86.1	99.7
RPMI 5 mM glucose + 10% dialyzed FBS, 0.569 µM	101	90.6	97.5
RPMI 5 mM glucose + 10% dialyzed FBS, 1.71 µM	97.6	89	101
RPMI 5 mM glucose + 10% dialyzed FBS, 5.12 µM	98.1	82.9	91.4
RPMI 5 mM glucose + 10% dialyzed FBS, 15.4 µM	88.8	87.3	92.2
RPMI 5 mM glucose + 10% dialyzed FBS, 46.1 µM	9.62	31.8	15.3

AUC of viability dose-response curve
Settings	NOMO1 [6]	P12-Ichikawa [5]	SEM cells [4]
HPLM + 10% dialyzed FBS	454	454	462
RPMI 5 mM glucose + 10% FBS	435	446	452
RPMI 5 mM glucose + 10% dialyzed FBS	448	427	452

From the supplement of paper PMC11451515
